Reference: patent publication US4742053A, “3-Isoquinoliniomethyl cephalosporin derivatives” (Banyu Pharmaceutical Co., Ltd., priority 1984, dated 1988)
Converted amounts (≈) assume the structure as drawn. Where two headings read alike, the source gives them in different places.

Key:
[1] = system: A. calcoaceticus No. 14; experiment: MIC by agar plate dilution method; type: cell-based; details: Acinetobacter calcoaceticus
Method: (§1) The minimum inhibitory concentrations (MIC: μg/ml) of the compounds of the present invention against various microorganisms were measured by an agar plate dilution method (inoculum size: 10^6 CFU/ml) by using Sensitivity Disk Agar (Nissui) in comparison with Cefotaxime and Ceftazidime as comparative compounds.
(§2) Minimum Inhibitory Concentration (μg/ml; 10^6 CFU/ml)

[2] = system: C. freundii No. 7; experiment: MIC by agar plate dilution method; type: cell-based; details: Citrobacter freundii
Method: as §1, §2

[3] = system: E. cloaceae Nek 39; experiment: MIC by agar plate dilution method; type: cell-based; details: read-out: Minimum Inhibitory Concentration
Method: as §1, §2

[4] = system: E. coli C/Rms149; experiment: MIC by agar plate dilution method; type: cell-based; details: Escherichia coli, read-out: Minimum Inhibitory Concentration, E. coli C/Rms149; 10^6 CFU/ml
Method: as §1, §2

[5] = system: E. coli CSH2; experiment: MIC by agar plate dilution method; type: cell-based; details: Escherichia coli, 10^6 CFU/ml, read-out: Minimum Inhibitory Concentration
Method: as §1, §2

[6] = system: E. coli CSH; experiment: MIC by agar plate dilution method; type: cell-based; details: Escherichia coli, 10^6 CFU/ml, read-out: Minimum Inhibitory Concentration
Method: as §1, §2

[7] = system: E. coli ML1410/Rte16; experiment: MIC by agar plate dilution method; type: cell-based; details: Escherichia coli, ML1410/RTE16, read-out: Minimum Inhibitory Concentration, E. coli ML1410/Rte16; 10^6 CFU/ml
Method: as §1, §2

[8] = system: E. coli NIHJJC-2; experiment: MIC by agar plate dilution method; type: cell-based; details: Escherichia coli
Method: as §1, §2

[9] = system: E. coli W3630/Rms212; experiment: MIC by agar plate dilution method; type: cell-based; details: Escherichia coli, W3630/RMS212, read-out: Minimum Inhibitory Concentration, E. coli W3630/Rms212; 10^6 CFU/ml
Method: as §1, §2

[10] = system: E. coli W3630/Rms213; experiment: MIC by agar plate dilution method; type: cell-based; details: Escherichia coli, W3630/RMS213, read-out: Minimum Inhibitory Concentration, E. coli W3630/Rms213; 10^6 CFU/ml
Method: as §1, §2

[11] = system: K. pneumoniae No. 42; experiment: MIC by agar plate dilution method; type: cell-based; details: Klebsiella pneumoniae
Method: as §1, §2

[12] = system: P. aeruginosa AK109; experiment: MIC by agar plate dilution method; type: cell-based; details: Pseudomonas aeruginosa
Method: as §1, §2

[13] = system: P. aeruginosa AKR17; experiment: MIC by agar plate dilution method; type: cell-based; details: Pseudomonas aeruginosa
Method: as §1, §2

[14] = system: P. cepacia 23; experiment: MIC by agar plate dilution method; type: cell-based
Method: as §1, §2

[15] = system: P. maltophilia IID 1275; experiment: MIC by agar plate dilution method; type: cell-based; details: Stenotrophomonas maltophilia
Method: as §1, §2

[16] = system: P. mirabilis JY10; experiment: MIC by agar plate dilution method; type: cell-based; details: Proteus mirabilis
Method: as §1, §2

[17] = system: P. vulgaris No. 33; experiment: MIC by agar plate dilution method; type: cell-based; details: Proteus vulgaris
Method: as §1, §2

[18] = system: P. vulgaris OB1043; experiment: MIC by agar plate dilution method; type: cell-based; details: Proteus vulgaris
Method: as §1, §2

[19] = system: S. aureus JS-1; experiment: MIC by agar plate dilution method; type: cell-based; details: Staphylococcus aureus
Method: as §1, §2

[20] = system: S. aureus NIHJJC-1; experiment: MIC by agar plate dilution method; type: cell-based; details: Staphylococcus aureus
Method: as §1, §2

[21] = system: S. marcescens No. 16-2; experiment: MIC by agar plate dilution method; type: cell-based; details: Serratia marcescens
Method: as §1, §2

[22] = system: Gram-positive bacteria and Gram-negative bacteria; details: background, Antimicrobial Agents and Chemotherapy; cited from earlier work
[23] = NO.14, A. calcoaceticus No. 14, 10^6 CFU/ml, read-out: Minimum Inhibitory Concentration
[24] = C. freundii No. 7, 10^6 CFU/ml, read-out: Minimum Inhibitory Concentration
[25] = E. cloaceae Nek 39, 10^6 CFU/ml
[26] = NIHJJC2, E. coli NIHJJC-2, 10^6 CFU/ml, read-out: Minimum Inhibitory Concentration
[27] = K. pneumoniae No. 42, 10^6 CFU/ml, read-out: Minimum Inhibitory Concentration
[28] = AK109, P. aeruginosa AK109, 10^6 CFU/ml, read-out: Minimum Inhibitory Concentration
[29] = AKR17, P. aeruginosa AKR17, 10^6 CFU/ml, read-out: Minimum Inhibitory Concentration
[30] = Burkholderia cepacia, P. cepacia 23, 10^6 CFU/ml, read-out: Minimum Inhibitory Concentration
[31] = IID1275, P. maltophilia IID 1275, 10^6 CFU/ml, read-out: Minimum Inhibitory Concentration
[32] = P. mirabilis JY10, 10^6 CFU/ml, read-out: Minimum Inhibitory Concentration
[33] = P. vulgaris No. 33, 10^6 CFU/ml, read-out: Minimum Inhibitory Concentration
[34] = OB1043, P. vulgaris OB1043, 10^6 CFU/ml, read-out: Minimum Inhibitory Concentration
[35] = JS1, S. aureus JS-1, 10^6 CFU/ml, read-out: Minimum Inhibitory Concentration
[36] = NIHJJC1, S. aureus NIHJJC-1, 10^6 CFU/ml, read-out: Minimum Inhibitory Concentration
[37] = NO.162, S. marcescens No. 16-2, 10^6 CFU/ml, read-out: Minimum Inhibitory Concentration

| SMILES | MIC [4] [µg/mL] | MIC [5] [µg/mL] | MIC [6] [µg/mL] | MIC [7] [µg/mL] | MIC [9] [µg/mL] | MIC [10] [µg/mL] | antibacterial activities [22] | MIC [1, 23] [µg/mL] | MIC [2, 24] [µg/mL] | MIC [3, 25] [µg/mL] | MIC [8, 26] [µg/mL] | MIC [11, 27] [µg/mL] | MIC [12, 28] [µg/mL] | MIC [13, 29] [µg/mL] | MIC [14, 30] [µg/mL] | MIC [15, 31] [µg/mL] | MIC [16, 32] [µg/mL] | MIC [17, 33] [µg/mL] | MIC [18, 34] [µg/mL] | MIC [19, 35] [µg/mL] | further results |
| --- | --- | --- | --- | --- | --- | --- | --- | --- | --- | --- | --- | --- | --- | --- | --- | --- | --- | --- | --- | --- | --- |
| CC(C)(O/N=C(\C(=O)N[C@@H]1C(=O)N2C(C(=O)[O-])=C(C[n+]3ccccc3)CS[C@H]12)c1csc(N)n1)C(=O)O [Ceftazidime, reference compound] | 0.2 (≈ 0.366 µM) | ≤ 0.1 | ≤ 0.1 | 0.2 (≈ 0.366 µM) | 0.2 (≈ 0.366 µM) | 0.2 (≈ 0.366 µM) | the most excellent cephalosporin derivative against Gram-positive bacteria including Pseudomonas aeruginosa and Acinetobacter |  |  |  |  |  |  |  |  |  |  |  |  |  | MIC ([1]; NO.14, read-out: Minimum Inhibitory Concentration): 6.25 µg/mL (≈ 11.4 µM); MIC ([2]; NO.7, read-out: Minimum Inhibitory Concentration): 1.56 µg/mL (≈ 2.85 µM); MIC [3]: 0.78 µg/mL (≈ 1.43 µM); MIC ([8]; NIHJJC2, read-out: Minimum Inhibitory Concentration): ≤ 0.1 µg/mL; MIC ([11]; NO.42, read-out: Minimum Inhibitory Concentration): 0.39 µg/mL (≈ 0.714 µM); MIC ([12]; AK109, read-out: Minimum Inhibitory Concentration): 1.56 µg/mL (≈ 2.85 µM); MIC ([13]; AKR17, read-out: Minimum Inhibitory Concentration): > 100 µg/mL; MIC ([14]; Burkholderia cepacia, 23, read-out: Minimum Inhibitory Concentration): 0.39 µg/mL (≈ 0.714 µM); MIC ([15]; IID1275, read-out: Minimum Inhibitory Concentration): > 25 µg/mL; MIC ([16]; JY10, read-out: Minimum Inhibitory Concentration): ≤ 0.1 µg/mL; MIC ([17]; NO.33, read-out: Minimum Inhibitory Concentration): ≤ 0.1 µg/mL; MIC ([18]; OB1043, read-out: Minimum Inhibitory Concentration): ≤ 0.1 µg/mL; MIC ([19]; JS1, read-out: Minimum Inhibitory Concentration): 50 µg/mL (≈ 91.5 µM); MIC ([20]; NIHJJC1, read-out: Minimum Inhibitory Concentration): 3.12 µg/mL (≈ 5.71 µM); MIC ([21]; NO.162, read-out: Minimum Inhibitory Concentration): 1.56 µg/mL (≈ 2.85 µM) |
| CO/N=C(\C(=O)N[C@@H]1C(=O)N2C(C(=O)O)=C(COC(C)=O)CS[C@H]12)c1csc(N)n1 [Cefotaxime, reference compound] | ≤ 0.05 | ≤ 0.05 | 0.1 (≈ 0.22 µM) | ≤ 0.05 | ≤ 0.05 | 0.2 (≈ 0.439 µM) | relatively poor antibacterial activities against Gram-positive bacteria, and excellent activities against Gram-negative bacteria, particularly against Enterobacteriacae | 25 (≈ 54.9 µM) | 0.39 (≈ 0.856 µM) | 0.78 (≈ 1.71 µM) | ≤ 0.05 | 0.1 (≈ 0.22 µM) | 6.25 (≈ 13.7 µM) | > 25 | 6.25 (≈ 13.7 µM) | > 25 | ≤ 0.05 | ≤ 0.05 | 0.39 (≈ 0.856 µM) | 6.25 (≈ 13.7 µM) | MIC [20, 36]: 0.78 µg/mL (≈ 1.71 µM); MIC [21, 37]: 6.25 µg/mL (≈ 13.7 µM) |
| C[N+]1(CC2=C(C(=O)[O-])N3C(=O)C(NC(=O)C(=NOC4(C(=O)O)CCCC4)c4csc(N)n4)C3SC2)CCc2cc(O)c(O)cc2C1 (centres unmarked) [Ex. 18-G, 7-[(Z)-2-(2-aminothiazol-4-yl)-2-(1-carboxy-1 cyclopentyloxyimino)acetamido]-3-(6,7-dihydroxy-2-methyl-1,2,3,4-tetrahydro-2-isoquinolinium)methyl-3-cephem-4-carboxylate] | 0.78 (≈ 1.16 µM) | 0.78 (≈ 1.16 µM) | 0.78 (≈ 1.16 µM) | 0.2 (≈ 0.297 µM) | 0.39 (≈ 0.58 µM) | 0.78 (≈ 1.16 µM) |  | 3.12 (≈ 4.64 µM) | 0.78 (≈ 1.16 µM) | 0.1 (≈ 0.149 µM) | 0.39 (≈ 0.58 µM) | 1.56 (≈ 2.32 µM) | 0.2 (≈ 0.297 µM) | 0.78 (≈ 1.16 µM) | 0.2 (≈ 0.297 µM) | 100 (≈ 149 µM) | 6.25 (≈ 9.29 µM) | 6.25 (≈ 9.29 µM) | 1.56 (≈ 2.32 µM) | > 100 | MIC [20, 36]: 25 µg/mL (≈ 37.2 µM); MIC [21, 37]: 12.5 µg/mL (≈ 18.6 µM) |
